Measurements published in article PMC8745178, “Methyl 2-Halo-4-Substituted-5-Sulfamoyl-Benzoates as High Affinity and Selective Inhibitors of Carbonic Anhydrase IX” (International Journal of Molecular Sciences, 2021).

Assays:
CAI = CAI (Homo sapiens, UniProt P00915); experiment: fluorescent thermal shift assay (FTSA), CAI; format: binding; settings: 37 °C; for ΔGintr CAI: converted from Kd_intr, independent of pH; for ΔGobs CAI: converted from Kd_obs, pH 7.0, FTSA
CAII = CAII (Homo sapiens, UniProt P00918); experiment: fluorescent thermal shift assay (FTSA), CAII; format: binding; settings: 37 °C; for ΔGintr CAII: converted from Kd_intr, independent of pH; for ΔGobs CAII: converted from Kd_obs, pH 7.0, FTSA
CAIV = CAIV (Homo sapiens, UniProt P22748); experiment: fluorescent thermal shift assay (FTSA), CAIV; format: binding; settings: 37 °C; for ΔGintr CAIV: converted from Kd_intr, independent of pH; for ΔGobs CAIV: converted from Kd_obs, pH 7.0, FTSA
Chain of CAIV (P22748 19-312): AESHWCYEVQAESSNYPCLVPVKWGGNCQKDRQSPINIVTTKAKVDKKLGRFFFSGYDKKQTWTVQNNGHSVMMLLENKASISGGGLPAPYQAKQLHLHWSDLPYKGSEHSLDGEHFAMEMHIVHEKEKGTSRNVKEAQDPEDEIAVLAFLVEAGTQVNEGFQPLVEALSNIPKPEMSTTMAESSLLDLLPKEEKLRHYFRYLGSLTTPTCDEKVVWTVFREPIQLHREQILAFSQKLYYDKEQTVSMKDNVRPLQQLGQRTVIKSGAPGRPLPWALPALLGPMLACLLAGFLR

CAVB = CAVB (Homo sapiens, UniProt Q9Y2D0); experiment: fluorescent thermal shift assay (FTSA), CAVB; format: binding; settings: 37 °C; for ΔGintr CAVB: converted from Kd_intr, independent of pH; for ΔGobs CAVB: converted from Kd_obs, pH 7.0, FTSA
Chain of CAVB (Q9Y2D0 34-317): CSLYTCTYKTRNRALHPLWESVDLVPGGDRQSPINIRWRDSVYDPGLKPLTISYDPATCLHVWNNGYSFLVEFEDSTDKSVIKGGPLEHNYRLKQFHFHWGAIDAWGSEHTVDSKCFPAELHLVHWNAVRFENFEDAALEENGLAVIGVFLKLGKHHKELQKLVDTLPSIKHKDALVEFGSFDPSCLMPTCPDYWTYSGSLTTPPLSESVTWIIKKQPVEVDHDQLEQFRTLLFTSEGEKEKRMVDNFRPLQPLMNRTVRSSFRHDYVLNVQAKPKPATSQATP

CAVI = CAVI (Homo sapiens, UniProt P23280); experiment: fluorescent thermal shift assay (FTSA), CAVI; format: binding; settings: 37 °C; for ΔGintr CAVI: converted from Kd_intr, independent of pH; for ΔGobs CAVI: converted from Kd_obs, pH 7.0, FTSA
Chain of CAVI (P23280 18-308): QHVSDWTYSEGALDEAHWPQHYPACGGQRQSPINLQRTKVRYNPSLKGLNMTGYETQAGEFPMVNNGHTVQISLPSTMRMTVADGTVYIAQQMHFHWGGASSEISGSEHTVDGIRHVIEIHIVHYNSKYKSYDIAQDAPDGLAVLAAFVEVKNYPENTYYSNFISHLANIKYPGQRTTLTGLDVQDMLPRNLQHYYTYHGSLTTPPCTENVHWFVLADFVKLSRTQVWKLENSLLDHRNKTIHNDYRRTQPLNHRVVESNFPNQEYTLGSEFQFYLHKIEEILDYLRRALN

CAVII = CAVII (Homo sapiens, UniProt P43166); experiment: fluorescent thermal shift assay (FTSA), CAVII; format: binding; settings: 37 °C; for ΔGobs CAVII: converted from Kd_obs, pH 7.0, FTSA; for ΔGintr CAVII: converted from Kd_intr, independent of pH
Chain of CAVII (P43166 whole entry): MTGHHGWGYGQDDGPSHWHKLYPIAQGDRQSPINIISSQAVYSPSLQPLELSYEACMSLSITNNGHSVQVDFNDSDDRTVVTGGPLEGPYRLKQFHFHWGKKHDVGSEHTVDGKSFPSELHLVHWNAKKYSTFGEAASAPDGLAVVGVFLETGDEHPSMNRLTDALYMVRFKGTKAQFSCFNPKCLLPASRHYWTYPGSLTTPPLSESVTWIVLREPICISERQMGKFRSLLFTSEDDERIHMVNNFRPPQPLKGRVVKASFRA

CAIX = CAIX (Homo sapiens, UniProt Q16790); experiment: fluorescent thermal shift assay (FTSA), CAIX; format: binding; settings: for ΔGobs CAIX: pH 7
CAXIII = CAXIII (Homo sapiens, UniProt Q8N1Q1); experiment: fluorescent thermal shift assay (FTSA), CAXIII; format: binding; settings: 37 °C; for ΔGintr CAXIII: converted from Kd_intr, independent of pH; for ΔGobs CAXIII: converted from Kd_obs, pH 7.0, FTSA
Chain of CAXIII (Q8N1Q1 whole entry): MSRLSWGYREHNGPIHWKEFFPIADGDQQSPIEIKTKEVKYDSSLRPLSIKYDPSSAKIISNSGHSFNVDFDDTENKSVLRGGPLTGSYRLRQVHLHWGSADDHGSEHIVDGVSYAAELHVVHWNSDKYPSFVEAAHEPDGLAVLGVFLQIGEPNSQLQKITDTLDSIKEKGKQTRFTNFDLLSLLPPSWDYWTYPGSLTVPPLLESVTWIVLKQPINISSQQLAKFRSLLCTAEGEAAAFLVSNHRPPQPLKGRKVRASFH

CAXIV = CAXIV (Homo sapiens, UniProt Q9ULX7); experiment: fluorescent thermal shift assay (FTSA), CAXIV; format: binding; settings: 37 °C; for ΔGintr CAXIV: converted from Kd_intr, independent of pH; for ΔGobs CAXIV: converted from Kd_obs, pH 7.0, FTSA
Chain of CAXIV (Q9ULX7 16-337): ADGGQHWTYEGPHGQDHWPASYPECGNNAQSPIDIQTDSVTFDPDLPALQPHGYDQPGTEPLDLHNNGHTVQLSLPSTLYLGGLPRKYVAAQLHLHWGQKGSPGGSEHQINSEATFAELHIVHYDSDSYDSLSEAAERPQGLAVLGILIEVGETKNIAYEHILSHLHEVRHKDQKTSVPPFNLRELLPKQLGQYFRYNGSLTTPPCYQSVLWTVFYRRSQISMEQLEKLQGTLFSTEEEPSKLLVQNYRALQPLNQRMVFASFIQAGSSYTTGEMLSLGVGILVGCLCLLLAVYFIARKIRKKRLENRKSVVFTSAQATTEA

[1] = determination of pKa of the sulfonamide group by UV-VIS spectra at various pH; format: physicochemical; settings: for f RSO2NH-, fraction of deprotonated sulfonamide: at pH 7.0, calculated from pKa; for pKa: calculated from spectra at various pH, 37 °C
CAIII = CAIII (Homo sapiens, UniProt P07451); experiment: fluorescent thermal shift assay (FTSA), CAIII; format: binding; settings: 37 °C; for ΔGintr CAIII: converted from Kd_intr, independent of pH; for ΔGobs CAIII: converted from Kd_obs, pH 7.0, FTSA
Chain of CAIII (P07451 whole entry): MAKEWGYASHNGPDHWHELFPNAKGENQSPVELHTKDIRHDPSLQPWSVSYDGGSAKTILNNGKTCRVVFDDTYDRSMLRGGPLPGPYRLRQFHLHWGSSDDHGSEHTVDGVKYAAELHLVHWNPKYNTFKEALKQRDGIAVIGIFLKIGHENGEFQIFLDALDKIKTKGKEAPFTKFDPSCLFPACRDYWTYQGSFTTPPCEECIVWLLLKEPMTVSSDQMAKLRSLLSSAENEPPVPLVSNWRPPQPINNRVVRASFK

CAVA = CAVA (Homo sapiens, UniProt P35218); experiment: fluorescent thermal shift assay (FTSA), CAVA; format: binding; settings: 37 °C; for ΔGintr CAVA: converted from Kd_intr, independent of pH; for ΔGobs CAVA: converted from Kd_obs, pH 7.0, FTSA
Chain of CAVA (P35218 39-305): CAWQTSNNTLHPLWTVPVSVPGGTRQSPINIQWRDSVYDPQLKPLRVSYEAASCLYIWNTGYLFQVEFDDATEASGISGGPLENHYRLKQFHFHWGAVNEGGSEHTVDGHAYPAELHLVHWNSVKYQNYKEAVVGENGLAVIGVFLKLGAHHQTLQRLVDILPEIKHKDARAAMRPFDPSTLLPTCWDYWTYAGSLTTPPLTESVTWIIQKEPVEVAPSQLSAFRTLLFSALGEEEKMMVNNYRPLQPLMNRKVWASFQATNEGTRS

CAXII = CAXII (Homo sapiens, UniProt O43570); experiment: fluorescent thermal shift assay (FTSA), CAXII; format: binding; settings: 37 °C
Chain of CAXII (O43570 25-354): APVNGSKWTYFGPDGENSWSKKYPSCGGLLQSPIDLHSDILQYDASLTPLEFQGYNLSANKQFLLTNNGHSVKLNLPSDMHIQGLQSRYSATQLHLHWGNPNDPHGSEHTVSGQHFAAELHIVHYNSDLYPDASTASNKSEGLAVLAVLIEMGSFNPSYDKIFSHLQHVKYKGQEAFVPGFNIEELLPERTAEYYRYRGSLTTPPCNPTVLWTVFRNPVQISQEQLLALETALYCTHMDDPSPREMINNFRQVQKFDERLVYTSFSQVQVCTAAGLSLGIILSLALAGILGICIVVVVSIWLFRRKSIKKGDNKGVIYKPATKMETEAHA

Chain of CAI (P00915 whole entry): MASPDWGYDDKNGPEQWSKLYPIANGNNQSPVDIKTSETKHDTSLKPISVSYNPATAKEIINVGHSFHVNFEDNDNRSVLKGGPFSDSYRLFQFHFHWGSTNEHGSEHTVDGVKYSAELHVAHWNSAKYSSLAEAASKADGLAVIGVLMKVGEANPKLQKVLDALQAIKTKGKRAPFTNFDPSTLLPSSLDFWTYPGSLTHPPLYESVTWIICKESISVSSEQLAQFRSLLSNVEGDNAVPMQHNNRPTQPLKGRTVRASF

Structure (SMILES) | ΔGintr CAI (CAI) | ΔGobs CAI (CAI) | ΔGintr CAII (CAII) | ΔGobs CAII (CAII) | ΔGintr CAVB (CAVB) | ΔGobs CAVB (CAVB) | ΔGintr CAVI (CAVI) | ΔGobs CAVI (CAVI) | ΔGobs CAVII (CAVII) | ΔGintr CAIX (CAIX) | ΔGobs CAIX (CAIX) | ΔGintr CAXIII (CAXIII) | ΔGobs CAXIII (CAXIII) | ΔGintr CAXIV (CAXIV) | ΔGobs CAXIV (CAXIV) | f RSO2NH-, fraction of deprotonated sulfonamide [1] | pKa [1] | ΔGintr CAVA (CAVA) | ΔGobs CAVA (CAVA) | ΔGintr CAVII (CAVII) | other results
COC(=O)c1cc(S(N)(=O)=O)c(Cl)cc1SCCc1ccccc1 [Compound 5d, Methyl 4-chloro-2-(2-phenylethylsulfanyl)-5-sulfamoylbenzoate] | -46.3 kJ/mol | -32.4 kJ/mol | -60.7 kJ/mol | -44.9 kJ/mol | -65.1 kJ/mol | -49.6 kJ/mol | -55.9 kJ/mol | -36.1 kJ/mol | -45.3 kJ/mol | -63.9 kJ/mol | -47.0 kJ/mol | -62.2 kJ/mol | -48.3 kJ/mol | -62.2 kJ/mol | -46.1 kJ/mol | 0.5% | 9.3 | – | – | – | ΔGintr CAIV (CAIV): -52.4 kJ/mol; ΔGobs CAIV (CAIV): -35.5 kJ/mol
COC(=O)c1cc(S(N)(=O)=O)c(S(=O)(=O)C2CCCCC2)cc1Cl [Compound 7b, Methyl 2-chloro-4-cyclohexylsulfonyl-5-sulfamoylbenzoate] | -40.6 kJ/mol | -23.7 kJ/mol | -44.3 kJ/mol | -25.5 kJ/mol | -42.2 kJ/mol | -23.7 kJ/mol | -44.9 kJ/mol | -22.1 kJ/mol | ≥ -22.0 kJ/mol | -49.8 kJ/mol | -29.9 kJ/mol | – | -24.7 kJ/mol | -43.8 kJ/mol | -24.7 kJ/mol | 0.2% | 9.8 | -41.4 kJ/mol | -23.7 kJ/mol | ≥ -41.0 kJ/mol | ΔGintr CAIII (CAIII): -44.1 kJ/mol; ΔGobs CAIII (CAIII): -23.7 kJ/mol; ΔGintr CAXII (CAXII; converted from Kd_intr, independent of pH): -43.9 kJ/mol; ΔGobs CAXII (CAXII; converted from Kd_obs, pH 7.0, FTSA): -24.8 kJ/mol
COC(=O)c1cc(S(N)(=O)=O)c(Cl)cc1S(=O)(=O)C1CCCCC1 [Compound 9b, Methyl 4-chloro-2-cyclohexylsulfonyl-5-sulfamoyl-benzoate] | -50.1 kJ/mol | -42.6 kJ/mol | -63.9 kJ/mol | -54.5 kJ/mol | -63.2 kJ/mol | -54.2 kJ/mol | -57.3 kJ/mol | -43.8 kJ/mol | -57.9 kJ/mol | – | -53.4 kJ/mol | -58.4 kJ/mol | -50.8 kJ/mol | -64.3 kJ/mol | -54.6 kJ/mol | 5.9% | 8.2 | -45.7 kJ/mol | -37.4 kJ/mol | -67.6 kJ/mol | ΔGintr CAIV (CAIV): -50.3 kJ/mol; ΔGobs CAIV (CAIV): -39.8 kJ/mol
COC(=O)c1cc(S(N)(=O)=O)c(Cl)cc1S(=O)(=O)CCc1ccccc1 [Compound 9d, Methyl 4-chloro-2-(2-phenylethylsulfonyl)-5-sulfamoylbenzoate] | -47.1 kJ/mol | -38.5 kJ/mol | -62.6 kJ/mol | -52.1 kJ/mol | – | -53.2 kJ/mol | -59.6 kJ/mol | -45.0 kJ/mol | -53.8 kJ/mol | – | -51.1 kJ/mol | -59.3 kJ/mol | -50.6 kJ/mol | -63.7 kJ/mol | -52.8 kJ/mol | 3.8% | 8.4 | -49.2 kJ/mol | -39.8 kJ/mol | -64.7 kJ/mol | ΔGintr CAIII (CAIII): -47.9 kJ/mol; ΔGobs CAIII (CAIII): -35.8 kJ/mol
COC(=O)c1cc(S(N)(=O)=O)c(Br)cc1S(=O)(=O)c1ccccc1 [Compound 10a, Methyl 2-(benzenesulfonyl)-4-bromo-5-sulfamoylbenzoate] | -47.1 kJ/mol | -38.5 kJ/mol | -61.8 kJ/mol | -51.3 kJ/mol | -59.4 kJ/mol | -49.2 kJ/mol | -56.0 kJ/mol | -41.4 kJ/mol | -54.5 kJ/mol | -62.0 | -50.3 kJ/mol | -58.3 kJ/mol | -49.6 kJ/mol | -62.5 kJ/mol | -51.6 kJ/mol | 3.8% | 8.4 | – | – | -65.3 kJ/mol | –
